The source of these data is article PMC6934184, “Selective DNA-PKcs inhibition extends the therapeutic index of localized radiotherapy and chemotherapy” (The Journal of Clinical Investigation, 2019).

The test concerns the target T1, CDK1/cyclin B (Homo sapiens, UniProt P06493).
T1 construct: purchased Thermo Fisher Scientific (Life Technologies) SelectScreen
Kind of test: SelectScreen Z'LYTE. The test is classed as biochemical. In short, it runs like this: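 NU5455 was profiled across the SelectScreen Broad panel of kinase activity and binding assays. Z'LYTE reactions such as CSF1R ran at apparent Km ATP, while the Adapta CAMK1 assay used ATP listed as 10. Values are given as percent.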

The structures appear in SMILES notation.

Broadly, the inhibition is the drop in the measured response relative to a control, in per cent. A lower inhibition goes with a weak effect.

T1 sequence (P06493 whole entry): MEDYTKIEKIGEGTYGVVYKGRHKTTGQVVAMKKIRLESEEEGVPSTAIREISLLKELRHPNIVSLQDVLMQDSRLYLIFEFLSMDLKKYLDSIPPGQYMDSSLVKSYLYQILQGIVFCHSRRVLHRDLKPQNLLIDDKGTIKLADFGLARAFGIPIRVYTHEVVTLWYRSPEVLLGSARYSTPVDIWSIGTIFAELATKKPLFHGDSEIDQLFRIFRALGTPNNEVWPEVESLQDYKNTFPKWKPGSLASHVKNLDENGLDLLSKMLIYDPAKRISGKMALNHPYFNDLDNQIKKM
T1 sequence (P14635 whole entry partner): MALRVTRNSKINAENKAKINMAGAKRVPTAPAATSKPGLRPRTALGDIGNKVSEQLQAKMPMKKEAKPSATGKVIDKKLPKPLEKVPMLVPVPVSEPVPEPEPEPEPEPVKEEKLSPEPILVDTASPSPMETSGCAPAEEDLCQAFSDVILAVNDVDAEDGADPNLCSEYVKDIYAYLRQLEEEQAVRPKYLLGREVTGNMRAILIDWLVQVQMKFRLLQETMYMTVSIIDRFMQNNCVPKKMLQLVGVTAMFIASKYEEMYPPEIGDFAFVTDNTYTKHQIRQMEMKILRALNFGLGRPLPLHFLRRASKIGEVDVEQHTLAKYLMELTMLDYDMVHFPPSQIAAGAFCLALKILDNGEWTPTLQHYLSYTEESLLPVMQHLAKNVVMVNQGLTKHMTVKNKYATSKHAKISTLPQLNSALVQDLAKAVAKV

With `CN(C(=O)CN1CCOCC1)c1ccc2sc3c(-c4cccc5c(=O)cc(N6CC7CCC(C6)O7)oc45)cccc3c2c1` [NU5455], 1 µM produced 1.6% inhibition.
